Test results reported in patent publication US10233180B2, “Substituted nitrogen-containing heterocyclic derivatives, pharmaceutical compositions comprising the same and applications of antitumor thereof” (ZHEJIANG UNIVERSITY, priority 2014, dated 2019).

Tests used:
[1] = test system: human colon cancer cell strain HCT-116; assay: MTT assay, inhibition of tumor cell growth in vitro, 72 h; assay type: cell-based; conditions: Homo sapiens, HCT-116, MTT, read-out: Antitumor proliferative activities of tumor cell (IC50, μM) HCT-116 (converted)
Method in brief: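 Cells in RPMI 1640 with FBS, 4000 cells/well, exposed 72 h at 37 °C, 5% CO2 to final 50, 10, 2, 0.4 and 0.08 μM; 1% DMSO blank. MTT OD gives % inhibition versus control; IC50 derived by Bliss method.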

Akt1 = target: T1, Akt1 (Homo sapiens, UniProt P31749); assay: AKT1/PKBα KinEASE FP Fluorescein Green Assay (fluorescence polarization kinase kit); assay type: biochemical; conditions: 1 h reaction, read-out: Inhibitory activities against Akt1 (IC50)
T1 construct: purchased 32-021
Method in brief: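 FP competition kinase assay: compounds (50 μM stock) with STK Substrate 3 and ATP, 1 h reaction at room temperature; stopped with stop/antibody mix, 4 h at room temperature, then polarization read. Inhibition derived from polarization values; IC50 calculated; triplicate wells.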

[2] = test system: Human ovarian cancer cell strain OVCAR-8; assay: MTT assay, inhibition of tumor cell growth in vitro, 72 h; assay type: cell-based; conditions: Homo sapiens, OVCAR-8, MTT, read-out: Antitumor proliferative activities of tumor cell (IC50, μM) OVCAR-8
Method in brief: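 OVCAR8 cells in RPMI 1640 plus FBS were seeded at 4000 cells/well and exposed for 72 h at 37 °C to compound at 50, 10, 2, 0.4 and 0.08 μM final, with 1% DMSO as blank. Inhibition was calculated from OD relative to control, and IC50 was derived by the Bliss method.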

T1 sequence (P31749 whole entry): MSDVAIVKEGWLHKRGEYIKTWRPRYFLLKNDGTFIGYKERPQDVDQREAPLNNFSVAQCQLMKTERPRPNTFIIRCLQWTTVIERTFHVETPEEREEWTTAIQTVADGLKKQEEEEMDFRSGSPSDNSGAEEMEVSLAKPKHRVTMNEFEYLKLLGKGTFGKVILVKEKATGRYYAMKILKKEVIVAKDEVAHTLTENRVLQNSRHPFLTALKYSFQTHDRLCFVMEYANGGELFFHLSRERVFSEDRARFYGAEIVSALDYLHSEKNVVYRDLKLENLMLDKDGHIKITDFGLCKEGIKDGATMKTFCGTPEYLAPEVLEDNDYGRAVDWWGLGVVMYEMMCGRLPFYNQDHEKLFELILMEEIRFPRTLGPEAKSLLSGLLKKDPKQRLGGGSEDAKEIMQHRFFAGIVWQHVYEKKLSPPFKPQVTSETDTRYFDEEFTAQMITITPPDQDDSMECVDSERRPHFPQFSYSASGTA

SMILES | IC50 [1] [µM] | IC50 (Akt1) [µM] | IC50 [2] [µM]
Cn1ncc(Cl)c1-c1ccc(C(=O)N[C@@H]2CNCC[C@H]2c2cccc(F)c2)cc1 [Compound 73, 4-(4-chloro-1-methyl-1H-pyrazol-5-yl)-N-((3S,4S)-4-(3-fluorophenyl)piperidin-3-yl)benzamide] | 1.21 | 0.007 | 2.45
CCc1cnn(C)c1-c1cc(F)c(C(=O)N[C@@H]2CNCC[C@H]2c2ccc(Cl)c(C(F)(F)F)c2)c(F)c1 [Compound 75, N-((3S,4S)-4-(4-chloro-3-(trifluoromethyl)phenyl)piperidin-3-yl)-4-(4-ethyl-1-methyl-1H-pyrazol-5-yl)-2,6-difluorobenzamide] | 0.99 | 0.013 | 2.19
Cn1nccc1-c1ccc(C(=O)N[C@@H]2CNCC[C@H]2c2ccc(F)c(F)c2)cc1 [Compound 77, N-((3S,4S)-4-(3,4-difluorophenyl)piperidin-3-yl)-4-(1-methyl-1H-pyrazol-5-yl)benzamide] | 2.81 | 0.018 | 3.68
Cn1ncc(Cl)c1-c1ccc(C(=O)N[C@@H]2CNCC[C@H]2c2cccc(F)c2)cc1N [Compound 79, 3-amido-4-(4-chloro-1-methyl-1H-pyrazol-5-yl)-N-((3S,4S)-4-(3-fluorophenyl)piperidin-3-yl)benzamide] | 4.08 | 0.019 | 3.77
Cn1ncc(Br)c1-c1ccc(C(=O)N[C@@H]2CNCC[C@H]2c2cc(F)c(F)c(F)c2)cc1 [Compound 81, 4-(4-bromo-1-methyl-1H-pyrazol-5-yl)-N-((3S,4S)-4-(3,4,5-trifluorophenyl)piperidin-3-yl)benzamide] | 1.1 | 0.018 | 3.57
Cn1ncc(Cl)c1-c1ccc(C(=O)N[C@@H]2CNCC[C@H]2c2ccc(F)c(F)c2)cc1F [Compound 82, 4-(4-chloro-1-methyl-1H-pyrazol-5-yl)-N-((3S,4S)-4-(3,4-difluorophenyl)piperidin-3-yl)-3-fluorobenzamide] | 1.56 | 0.016 | 1.15
COc1cc(C(=O)N[C@@H]2CNCC[C@H]2c2cccc(F)c2)ccc1-c1c(Cl)cnn1C [Compound 83, 4-(4-chloro-1-methyl-1H-pyrazol-5-yl)-N-((3S,4S)-4-(3-fluorophenyl)piperidin-3-yl)-3-methoxybenzamide] | 4.09 | 0.01 | 1.32
Cn1ncc(Cl)c1-c1ccc(C(=O)N[C@@H]2CNCC[C@H]2c2cccc(F)c2)cc1OC(F)(F)F [Compound 85, 4-(4-chloro-1-methyl-1H-pyrazol-5-yl)-N-((3S,4S)-4-(3-fluorophenyl)piperidin-3-yl)-3-(trifluoromethoxy)benzamide] | 5.56 | 0.021 | 3.07
Cn1ncc(Cl)c1-c1ccc(C(=O)N[C@@H]2CNCC[C@H]2c2cccc(F)c2)cc1Cl [Compound 86, 3-chloro-4-(4-chloro-1-methyl-1H-pyrazol-5-yl)-N-((3S,4S)-4-(3-fluorophenyl)piperidin-3-yl)benzamide] | 1.47 | 0.014 | 1.26
Cn1ncc(Cl)c1-c1ccc(C(=O)N[C@@H]2CNCC[C@H]2c2ccc(F)c(F)c2)cc1-c1ccoc1 [Compound 87, 4-(4-chloro-1-methyl-1H-pyrazol-5-yl)-N-((3S,4S)-4-(3,4-difluorophenyl)piperidin-3-yl)-3-(furan-3-yl)benzamide] | 5.63 | 0.01 | 2.43
Cc1occc1-c1cc(-c2c(Cl)cnn2C)ccc1C(=O)N[C@@H]1CNCC[C@H]1c1cccc(F)c1 [Compound 88, 4-(4-chloro-1-methyl-1H-pyrazol-5-yl)-N-((3S,4S)-4-(3-fluorophenyl)piperidin-3-yl)-2-(2-methylfuran-3-yl)benzamide] | 4.21 | 0.008 | 1.07
Cn1ncc(Cl)c1-c1ccc(C(=O)N[C@@H]2CNCC[C@H]2c2c[nH]c3ccccc23)cc1Cl [Compound 89, N-((3S,4S)-4-(1H-indol-3-yl)piperidin-3-yl)-3-chloro-4-(4-chloro-1-methyl-1H-pyrazol-5-yl)benzamide] | 1.02 | 0.011 | 5.69
Cn1ncc(Cl)c1-c1ccc(C(=O)N[C@@H]2CNCC[C@H]2c2cccc3[nH]ccc23)cc1Cl [Compound 91, N-((3S,4S)-4-(1H-indol-4-yl)piperidin-3-yl)-3-chloro-4-(4-chloro-1-methyl-1H-pyrazol-5-yl)benzamide] | 0.34 | 0.005 | 2.91
Cn1ncc(Cl)c1-c1cnc(C(=O)N[C@@H]2CNCC[C@H]2c2cccc(F)c2)cc1Cl [Compound 92, 4-chloro-5-(4-chloro-1-methyl-1H-pyrazol-5-yl)-N-((3S,4S)-4-(3-fluorophenyl)piperidin-3-yl)picolinamide] | 1.25 | 0.016 | 1.07

Further lines, results first:

IC50 [1] [µM] | IC50 (Akt1) [µM] | IC50 [2] [µM] | SMILES
0.92 | 0.006 | 1.34 | Cn1ncc(Br)c1-c1ccc(C(=O)N[C@@H]2CNCC[C@H]2c2ccc(Cl)cc2)cc1 [Compound 72, 4-(4-bromo-1-methyl-1H-pyrazol-5-yl)-N-((3S,4S)-4-(4-chlorophenyl)piperidin-3-yl)benzamide]
0.42 | 0.014 | 1.3 | Cc1cc(C(=O)N[C@@H]2CNCC[C@H]2c2ccc(Cl)c(C(F)(F)F)c2)ccc1-c1c(Cl)cnn1C [Compound 74, 4-(4-chloro-1-methyl-1H-pyrazol-5-yl)-N-((3S,4S)-4-(4-chloro-3-(trifluoromethyl)phenyl)piperidin-3-yl)-3-methylbenzamide]
1.56 | 0.021 | 2.54 | Cn1ncc(Cl)c1-c1ccc(C(=O)N[C@@H]2CNCC[C@H]2c2ccc(Cl)cc2)cc1C#N [Compound 76, 4-(4-chloro-1-methyl-1H-pyrazol-5-yl)-N-((3S,4S)-4-(4-chlorophenyl)piperidin-3-yl)-3-cyanobenzamide]
2.03 | 0.006 | 0.76 | Cn1ncc(Cl)c1-c1ccc(C(=O)N[C@@H]2CNCC[C@H]2c2ccc(F)c(F)c2)cc1Cl [Compound 78, 3-chloro-4-(4-chloro-1-methyl-1H-pyrazol-5-yl)-N-((3S,4S)-4-(3,4-difluorophenyl)piperidin-3-yl)benzamide]
2.51 | 0.001 | 0.94 | Cn1ncc(Cl)c1-c1ccc(C(=O)N[C@@H]2CNCC[C@H]2c2ccc(Cl)cc2)c(C(F)(F)F)c1 [Compound 80, 4-(4-chloro-1-methyl-1H-pyrazol-5-yl)-N-((3S,4S)-4-(4-chlorophenyl)piperidin-3-yl)-2-(trifluoromethyl)benzamide]
2.1 | 0.009 | 4.44 | Cn1ncc(Cl)c1-c1ccc(C(=O)N[C@@H]2CNCC[C@H]2c2ccc(Cl)c(C(F)(F)F)c2)c(F)c1 [Compound 84, 4-(4-chloro-1-methyl-1H-pyrazol-5-yl)-N-((3S,4S)-4-(4-chloro-3-(trifluoromethyl)phenyl)piperidin-3-yl)-2-fluorobenzamide]
0.69 | 0.014 | 1.83 | Cn1ncc(Cl)c1-c1ccc(C(=O)N[C@@H]2CNCC[C@H]2c2ccc(F)c(F)c2)c(-c2csc(Cl)c2)c1 [Compound 90, 4-(4-chloro-1-methyl-1H-pyrazol-5-yl)-2-(5-chlorothiophene-3-yl)-N-((3S, 4S)-4-(3,4-difluorophenyl)piperidin-3-yl)benzamide]
